Values quoted from earlier work in patent US20110053172A1, “ONE STEP NANOSENSOR FOR SINGLE AND MULTIDRUG RESISTANCE IN ACUTE CORONARY SYNDROME (ACS)” (UNIVERSITY OF CALCUTTA, priority 2009, published 2011).

Conditions: in comparison to aspirin; P=0.043

For COC(=O)[C@H](c1ccccc1Cl)N1CCc2sccc2C1 [clopidogrel], the “relative risk reduction in stroke, myocardial infarction, or ischaemic death” value is given as 8.7%.
